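Interpolation was linear, between the two tested concentrations surrounding the appropriate level; five concentrations were tested over 48 hours in 96-well plates. Abbreviation: GI50, concentration required for 50% inhibition of growth.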 Active and inactive are the calls of the source. Cut-off read from the data, not from the text of the source: active = GI50 up to about 1.1 µM and inactive = higher. Where a SMILES comes first, the peptide text is derived from it. [ ]: non-standard residue; d: D form. The star is where a group is joined. ξ: configuration not given here. NMeF = CN[CH](Cc1ccccc1)C(=O)O; ξNMe2Val = CC(C)C(C(=O)*)N(C)C; NMeV = CN[CH](C(=O)O)C(C)C; OtBu = CC(C)(C)O*
Experiments:
Experiment in all cases: NCI anticancer screen, dose series, 48 h
LOX IMVI = tested on: LOX IMVI
NCI-H226 = tested on: NCI-H226
OVCAR-5 = tested on: OVCAR-5
SF-539 = tested on: SF-539
OVCAR-4 = tested on: OVCAR-4
UACC-257 = tested on: UACC-257
HCT-116 = tested on: HCT-116
786-0 = tested on: 786-0
Malme-3M = tested on: Malme-3M
UO-31 = tested on: UO-31
SF-295 = tested on: SF-295
MOLT-4 = tested on: MOLT-4
NCI-H522 = tested on: NCI-H522
SN12C = tested on: SN12C
RPMI-8226 = tested on: RPMI-8226
CCRF-CEM = tested on: CCRF-CEM

SMILES	GI50 (LOX IMVI)	GI50 (NCI-H226)	GI50 (OVCAR-5)	GI50 (SF-539)	GI50 (OVCAR-4)	GI50 (UACC-257)	GI50 (HCT-116)	GI50 (786-0)	GI50 (Malme-3M)	GI50 (UO-31)	GI50 (SF-295)	GI50 (MOLT-4)	GI50 (NCI-H522)	GI50 (SN12C)	GI50 (RPMI-8226)	GI50 (CCRF-CEM)
CC[C@H]1CNC(=O)CC1CC(=O)OC (some centres undefined)	> 100 µM (inactive)	> 100 µM (inactive)	> 100 µM (inactive)	> 100 µM (inactive)	> 100 µM (inactive)	> 100 µM (inactive)	> 100 µM (inactive)	> 100 µM (inactive)	> 100 µM (inactive)	> 100 µM (inactive)	> 100 µM (inactive)	> 100 µM (inactive)	> 100 µM (inactive)	> 100 µM (inactive)	–	–
Cc1ccc(S(=O)(=O)N2CCCCC2CCO)cc1 (centres undefined)	–	> 100 µM (inactive)	> 100 µM (inactive)	> 100 µM (inactive)	> 100 µM (inactive)	> 100 µM (inactive)	> 100 µM (inactive)	> 100 µM (inactive)	> 100 µM (inactive)	> 100 µM (inactive)	> 100 µM (inactive)	> 100 µM (inactive)	0.0342 µM (active)	> 100 µM (inactive)	> 100 µM (inactive)	> 100 µM (inactive)
CCn1c(=O)c2ccccc2n2c(=O)c3cc4ccccc4cc3nc12	> 100 µM (inactive)	> 100 µM (inactive)	> 100 µM (inactive)	62.7 µM (inactive)	–	> 100 µM (inactive)	> 100 µM (inactive)	37.3 µM (inactive)	> 100 µM (inactive)	> 100 µM (inactive)	28.3 µM (inactive)	> 100 µM (inactive)	98.9 µM (inactive)	> 100 µM (inactive)	> 100 µM (inactive)	> 100 µM (inactive)
CCC(Oc1ccc(OC)c2c1C(=O)CCC2)C(=O)O (centres undefined)	> 100 µM (inactive)	> 100 µM (inactive)	> 100 µM (inactive)	> 100 µM (inactive)	> 100 µM (inactive)	> 100 µM (inactive)	–	> 100 µM (inactive)	> 100 µM (inactive)	> 100 µM (inactive)	> 100 µM (inactive)	> 100 µM (inactive)	> 100 µM (inactive)	> 100 µM (inactive)	> 100 µM (inactive)	> 100 µM (inactive)
NCCCSCC(=O)O	–	> 100 µM (inactive)	> 100 µM (inactive)	> 100 µM (inactive)	> 100 µM (inactive)	> 100 µM (inactive)	> 100 µM (inactive)	> 100 µM (inactive)	> 100 µM (inactive)	> 100 µM (inactive)	> 100 µM (inactive)	> 100 µM (inactive)	> 100 µM (inactive)	> 100 µM (inactive)	> 100 µM (inactive)	–
O=S1(=O)COc2ccccc2-c2ncncc21	> 100 µM (inactive)	> 100 µM (inactive)	> 100 µM (inactive)	> 100 µM (inactive)	> 100 µM (inactive)	> 100 µM (inactive)	> 100 µM (inactive)	> 100 µM (inactive)	> 100 µM (inactive)	> 100 µM (inactive)	> 100 µM (inactive)	> 100 µM (inactive)	> 100 µM (inactive)	> 100 µM (inactive)	> 100 µM (inactive)	> 100 µM (inactive)
CCOC(=O)C1(C(=O)OCC)CC=C(C)CC12C(=O)Nc1ccccc12 (centres undefined)	> 100 µM (inactive)	> 100 µM (inactive)	> 100 µM (inactive)	> 100 µM (inactive)	> 100 µM (inactive)	–	> 100 µM (inactive)	> 100 µM (inactive)	> 100 µM (inactive)	–	> 100 µM (inactive)	> 100 µM (inactive)	> 100 µM (inactive)	> 100 µM (inactive)	> 100 µM (inactive)	> 100 µM (inactive)
CC1=CC2CCC1(C)C/C2=C(/C)OC=O (centres undefined)	> 100 µM (inactive)	> 100 µM (inactive)	> 100 µM (inactive)	> 100 µM (inactive)	> 100 µM (inactive)	> 100 µM (inactive)	> 100 µM (inactive)	> 100 µM (inactive)	–	> 100 µM (inactive)	> 100 µM (inactive)	> 100 µM (inactive)	> 100 µM (inactive)	> 100 µM (inactive)	> 100 µM (inactive)	> 100 µM (inactive)
C[C@]12CC(C=O)C(=O)C(O)=C1CC[C@@H]1C2CC[C@@]2(C)C1CC[C@]2(C)O (some centres undefined)	11.5 µM (inactive)	18.6 µM (inactive)	16.5 µM (inactive)	18.5 µM (inactive)	13.2 µM (inactive)	24.2 µM (inactive)	20 µM (inactive)	16.3 µM (inactive)	5.06 µM (inactive)	21.3 µM (inactive)	27.1 µM (inactive)	22.3 µM (inactive)	–	21.2 µM (inactive)	16.6 µM (inactive)	> 10 µM (inactive)
Cc1nc(N)nc(CCC(=O)Nc2cccc(C(F)(F)F)c2)c1-c1ccc(Cl)cc1	–	> 100 µM (inactive)	> 100 µM (inactive)	> 100 µM (inactive)	> 100 µM (inactive)	> 100 µM (inactive)	> 100 µM (inactive)	> 100 µM (inactive)	> 100 µM (inactive)	> 100 µM (inactive)	> 100 µM (inactive)	> 100 µM (inactive)	> 100 µM (inactive)	> 100 µM (inactive)	> 100 µM (inactive)	> 100 µM (inactive)
O=c1cc(-c2ccccc2)oc2cc(OCCCCCCCCCCOc3ccc4c(=O)cc(-c5ccccc5)oc4c3)ccc12	–	–	> 100 µM (inactive)	> 100 µM (inactive)	> 100 µM (inactive)	> 100 µM (inactive)	> 100 µM (inactive)	> 100 µM (inactive)	> 100 µM (inactive)	–	> 100 µM (inactive)	> 100 µM (inactive)	> 100 µM (inactive)	42.5 µM (inactive)	> 100 µM (inactive)	> 100 µM (inactive)
C/C(=C1/CCC/C(=C(/C)c2ccccc2)C1=O)c1ccccc1	28.8 µM (inactive)	17.4 µM (inactive)	27.2 µM (inactive)	62.4 µM (inactive)	46.3 µM (inactive)	25 µM (inactive)	18.5 µM (inactive)	44.4 µM (inactive)	14.9 µM (inactive)	44.6 µM (inactive)	38.1 µM (inactive)	21.5 µM (inactive)	33.6 µM (inactive)	50.7 µM (inactive)	23.9 µM (inactive)	22.2 µM (inactive)
COc1ccc(/C(Cl)=C(\c2ccc(OCCN(C)C)cc2)c2ccc(OC(=O)C(C)(C)C)cc2)cc1	6.61 µM (inactive)	12.9 µM (inactive)	15.7 µM (inactive)	13.8 µM (inactive)	13.9 µM (inactive)	–	12.1 µM (inactive)	10.4 µM (inactive)	13.6 µM (inactive)	6.95 µM (inactive)	14.8 µM (inactive)	2.91 µM (inactive)	14.8 µM (inactive)	13.4 µM (inactive)	14.3 µM (inactive)	11 µM (inactive)
NC(=O)N/N=C(\CC1OC(=O)c2ccccc21)c1ccc([N+](=O)[O-])cc1 (centres undefined)	17 µM (inactive)	–	–	21.5 µM (inactive)	39.5 µM (inactive)	67.3 µM (inactive)	28.7 µM (inactive)	17.6 µM (inactive)	25.3 µM (inactive)	76.6 µM (inactive)	68.4 µM (inactive)	27.7 µM (inactive)	–	31 µM (inactive)	31.3 µM (inactive)	31.3 µM (inactive)
CC(C)N1CCC2(CC1)NNc1ncccc1-n1cccc12	> 100 µM (inactive)	> 100 µM (inactive)	> 100 µM (inactive)	> 100 µM (inactive)	> 100 µM (inactive)	> 100 µM (inactive)	> 100 µM (inactive)	> 100 µM (inactive)	> 100 µM (inactive)	> 100 µM (inactive)	> 100 µM (inactive)	> 100 µM (inactive)	> 100 µM (inactive)	> 100 µM (inactive)	> 100 µM (inactive)	> 100 µM (inactive)
COC(=O)C12C3C4C1C1C2C3C41I (centres undefined)	–	> 100 µM (inactive)	> 100 µM (inactive)	> 100 µM (inactive)	> 100 µM (inactive)	> 100 µM (inactive)	–	> 100 µM (inactive)	> 100 µM (inactive)	> 100 µM (inactive)	> 100 µM (inactive)	> 100 µM (inactive)	–	> 100 µM (inactive)	> 100 µM (inactive)	> 100 µM (inactive)
CN(C)/C=N\c1ccn(CCO)c(=O)n1	> 100 µM (inactive)	> 100 µM (inactive)	> 100 µM (inactive)	> 100 µM (inactive)	> 100 µM (inactive)	> 100 µM (inactive)	> 100 µM (inactive)	> 100 µM (inactive)	> 100 µM (inactive)	> 100 µM (inactive)	–	> 100 µM (inactive)	> 100 µM (inactive)	> 100 µM (inactive)	–	> 100 µM (inactive)
COc1cc2cnc3c4ccccc4ccc3c2cc1OC	–	–	> 100 µM (inactive)	–	> 100 µM (inactive)	> 100 µM (inactive)	–	> 100 µM (inactive)	> 100 µM (inactive)	> 100 µM (inactive)	> 100 µM (inactive)	> 100 µM (inactive)	> 100 µM (inactive)	> 100 µM (inactive)	> 100 µM (inactive)	> 100 µM (inactive)
CC(C)C(C(=O)N(C)C(Cc1ccccc1)C(=O)N(C)C(C(=O)N(C)C(C(=O)N1CCCC1C(=O)OC(C)(C)C)C(C)C)C(C)C)N(C)C (centres undefined) (ξNMe2Val-[NMeF][NMeV][NMeV]P-OtBu; configuration not given here)	22.9 µM (inactive)	> 100 µM (inactive)	–	26.1 µM (inactive)	–	32.8 µM (inactive)	33.6 µM (inactive)	52.7 µM (inactive)	> 10 µM (inactive)	86.7 µM (inactive)	60.8 µM (inactive)	13.9 µM (inactive)	17.4 µM (inactive)	50.1 µM (inactive)	36.8 µM (inactive)	31.6 µM (inactive)

From ChEMBL document CHEMBL1201862, “PubChem BioAssay data set” (2004)
